{"source": "paper PMC3071873", "about": "(Journal of medicinal chemistry, 2010)", "key": {"[1]": {"settings": "storage in solution; oxidative or hydrolytic degradation; cited from earlier work"}, "[2]": {"tested_on": "toxic effect of 1-methyl-4-phenyl-tetrahydropyridine (MPTP)", "settings": "mice; cited from earlier work"}, "[3]": {"settings": "humans, daily dosage of 25 mg; cited from earlier work"}, "[4]": {"target": "rat monoamine oxidase (MAO) B", "settings": "weak inhibitor; cited from earlier work"}, "[5]": {"settings": "cited from earlier work"}, "[6]": {"target": "T1, human MAO B (Homo sapiens, UniProt P27338)", "T1 sequence (P27338 1-520)": "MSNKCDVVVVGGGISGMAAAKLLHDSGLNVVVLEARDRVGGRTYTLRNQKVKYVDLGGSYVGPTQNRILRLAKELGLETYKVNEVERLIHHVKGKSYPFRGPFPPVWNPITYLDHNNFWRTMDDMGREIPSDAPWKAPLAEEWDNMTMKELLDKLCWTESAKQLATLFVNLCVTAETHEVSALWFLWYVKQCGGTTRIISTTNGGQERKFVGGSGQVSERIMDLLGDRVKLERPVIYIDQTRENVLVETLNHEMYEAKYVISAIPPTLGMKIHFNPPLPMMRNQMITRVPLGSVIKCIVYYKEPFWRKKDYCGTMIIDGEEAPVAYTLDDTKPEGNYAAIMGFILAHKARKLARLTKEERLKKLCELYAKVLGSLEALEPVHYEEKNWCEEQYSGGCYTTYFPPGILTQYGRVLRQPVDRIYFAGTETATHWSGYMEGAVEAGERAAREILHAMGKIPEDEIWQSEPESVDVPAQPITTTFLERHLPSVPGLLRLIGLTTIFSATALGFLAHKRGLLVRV", "test": "Inhibition of purified recombinant human MAO B", "type": "biochemical", "settings": "versus safinamide (ref 12)"}, "[7]": {"tested_on": "mouse MAO B", "settings": "membrane-bound mouse MAO B; cited from earlier work"}}, "note": "“And” between values parts separate entries of the source, which are not always exact repeats. Equal values may be shown once.", "data": [{"smiles": "NS(=O)(=O)Cc1noc2ccccc12", "note": "[Zonisamide, 1,2-benzisoxazole-3-methanesulfonamide]", "values": [{"measurement": "stability of aged solutions", "setting": "[1]", "value": "lose inhibition potency on storage in solution"}, {"measurement": "effect on MPTP toxicity", "setting": "[2]", "value": "attenuates the toxic effect"}, {"measurement": "plasma (serum) concentration", "setting": "[3]", "value": "~ 0.6 μM and 0.6 μM"}, {"measurement": "Ki", "setting": "[4]", "value": 660, "unit": "µM"}, {"measurement": "brain tissue versus plasma concentrations", "setting": "[5]", "value": "higher in brain tissues"}, {"measurement": "weaker Ki value with human MAO B compared to safinamide", "setting": "[6]", "value": "~ 6 fold"}, {"measurement": "IC50", "setting": "[7]", "value": 25, "unit": "µM"}]}]}
